What was measured:
Male CD-1 mice = experiment: Tail clip bleeding model; assay type: in vivo; conditions: for Bleeding profile (bleeding graphs): apixaban 4 mg/kg, FIG. 4D
Description: Tail clip bleeding model: Animal experiments were performed at the U.S. FDA/CBER Division of Veterinary Services in accordance with the protocol approved by the institutional animal care and use committee (IACUC). Male CD-1 mice (Charles River Laboratories, Kingston, NY, USA) were 5-8 weeks old weighing 28-34 grams. […] After 5 minutes, 3 mm of tail were cut, after which the tail was immersed in a tube with predefined volume of 0.9% NaCl at 37° C. and allowed to bleed for 30 minutes under close observation. Blood loss was determined by measuring hemoglobin content and expressed as μl/mouse.
The design of the in vivo study in mice is depicted in FIG. 3B. […] The tails of the mice were clipped, and bleeding monitored by measuring bleeding time (FIG. 3C) and blood loss (FIG. 3D). […] All bleeding episodes were plotted using the length and number of episodes of bleeds for each individual mouse (FIG. 3E) to determine the bleeding profiles.
Additional experiments were performed in the mouse model, as above, but with the inclusion of andexanet alfa for comparison. The experimental strategy is depicted in FIG. 4A.

Factor VII (FVII) = molecular target: T1, Factor VII (FVII) (Homo sapiens, UniProt P08709); experiment: 1H NMR binding of apixaban to Factor VII; conditions: stoichiometric amounts, FIG. 1H
T1 sequence (P08709 61-466): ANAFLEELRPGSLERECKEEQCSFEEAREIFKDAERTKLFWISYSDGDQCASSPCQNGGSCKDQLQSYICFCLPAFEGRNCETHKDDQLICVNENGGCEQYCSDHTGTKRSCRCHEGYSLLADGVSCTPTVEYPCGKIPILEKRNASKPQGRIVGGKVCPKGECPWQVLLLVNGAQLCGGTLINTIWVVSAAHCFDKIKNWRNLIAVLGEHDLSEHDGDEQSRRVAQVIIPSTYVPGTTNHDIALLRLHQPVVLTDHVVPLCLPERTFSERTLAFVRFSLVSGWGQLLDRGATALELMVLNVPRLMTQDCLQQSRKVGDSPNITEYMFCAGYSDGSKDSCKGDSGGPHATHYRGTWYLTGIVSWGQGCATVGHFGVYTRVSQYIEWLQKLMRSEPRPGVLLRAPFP
Text: FIGS. 1A-1H show design and functional characterization of low affinity FXa variants. FIG. 1A illustrates the computational strategy using RosettaDesign and homology insertion. […] Variants 69 and 70 are located on the same region between H311 and T318. […] FIG. 1F is a graph showing the rate of chromogenic substrate cleavage in pure buffer systems by FXa variants at different concentrations. […] Values for IC50±SD were obtained from fitted curves. […] The top spectrum is the result of superposition of ligand and protein signals with no alteration. The reference NMR spectrum (middle) contains only sharp signals, as expected for an NMR spectrum of a small molecule.
The final models allowed identification of clashes with apixaban. Following manual inspection of the models, 21 designs were selected. […] (ii) Two proteins were used as homology models to identify potential mutations to include as insertions. The human factor VII (FVII) (PDB ID: 1DAN) crystal structure was superimposed onto the human FXa (PDB ID: 2P16) crystal structure and differences in amino acid identity were analyzed. Final insertion identities were based on proximity to binding pocket and length. […] Seven FXa variants were selected based on this strategy. Some of these designs failed experimental validations. In a follow up round of homology-based designs, the insertions from Factor VII were decreased in length and number. […]

[1] = Inhibition of FXa variant chromogenic substrate cleavage by apixaban (IC50); assay type: biochemical, human; conditions: for IC50: apixaban, fixed amounts of FXa variants, increasing apixaban concentrations
Description: Chromogenic FXa activity assay: The FXa activity assay based on CS11(65)a chromogenic substrate (Biophen) was performed as described below. […] For each sample, substrate cleavage was calculated by taking the average rate over the time frame between 1 and 2 minutes.
Activity and inhibitory concentration were determined for a larger series of variants (FIGS. 2A and 2B). Activities for all variants were determined using the rate of chromogenic substrate cleavage in pure buffer system at different FXa concentrations. Variants were assigned into five brackets (FIG. 2A). […] To be assigned as potentially beneficial the combined scores were ***** but the individual score could not be less than **.

[2] = molecular target: T2, Tissue factor pathway inhibitor (TFPI) (Homo sapiens, UniProt P10646); experiment: ACTICHROME TFPI assay; assay type: biochemical; conditions: 4 nM variants vs 100 nM andexanet alfa, FIG. 5
T2 construct: BioMedica Diagnostics (assay kit)
T2 sequence (P10646 29-304): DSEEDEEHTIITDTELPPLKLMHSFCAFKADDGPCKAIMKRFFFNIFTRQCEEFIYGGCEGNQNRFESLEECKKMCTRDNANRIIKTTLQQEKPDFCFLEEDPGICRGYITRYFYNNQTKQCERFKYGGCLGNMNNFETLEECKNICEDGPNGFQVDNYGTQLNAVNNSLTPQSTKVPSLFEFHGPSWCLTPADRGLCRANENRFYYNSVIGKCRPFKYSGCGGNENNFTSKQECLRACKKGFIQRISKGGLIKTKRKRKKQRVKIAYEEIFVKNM
Description: Tissue factor pathway inhibitor (TFPI) plays a very important role in regulation of the procoagulant activity of tissue factor (TF). […] TFPI activity was determined using ACTICHROME® TFPI assay (BioMedica Diagnostics) according to manufacturer's protocol.

[3] = system: tissue factor (TF)-triggered pooled normal human plasma; experiment: Thrombin generation assay in plasma spiked with apixaban; assay type: biochemical
Description: Thrombin generation assay: The procoagulant activity of FXa variants was evaluated by a previously described thrombin generation assay in tissue factor (TF)-triggered pooled normal human plasma (Affinity Biologicals Inc, Ontario, Canada). […] Fluorescence (product of thrombin substrate consumption) was recorded in a kinetic mode at 37° C. using a Tecan Infinite F500 every 45 seconds for a period of 1.7 hours. In-house software was used to calculate calibrate thrombin generation assay (using an internal thrombin calibrator CAT® from Stago, Parsippany, NJ, USA) and calculate thrombin peak height parameter.

[4] = molecular target: Tissue factor pathway inhibitor (TFPI), P10646

COc1ccc(-n2nc(C(N)=O)c3c2C(=O)N(c2ccc(N4CCCCC4=O)cc2)CC3)cc1 [apixaban, reference compound]
Bleeding profile (bleeding graphs) (Male CD-1 mice): mostly uninterrupted flow of blood
Bleeding time, apixaban group compared to the control group (Male CD-1 mice; tail clip, FIG. 3C): significantly greater
binding to FVII by NMR (Factor VII (FVII)): does not bind to FVII

Variant 61: modified Factor Xa polypeptide, W439A, S4 subsite, SEQ ID NO: 2
Bleeding time (Male CD-1 mice; 1 mg/kg infused 5 min after apixaban, FIG. 3C): significantly reduced bleeding time
Blood loss (Male CD-1 mice; 1 mg/kg infused 5 min after apixaban, FIG. 3D): successfully reversed the anticoagulant effect of apixaban
Bleeding profile (bleeding graphs) (Male CD-1 mice): multiple breaks in blood flowing from the tail cut
Bleeding time (Male CD-1 mice; apixaban dose of 4 mg/kg, FIG. 4B): significant decrease
Blood loss (Male CD-1 mice; apixaban dose of 4 mg/kg, FIG. 4C): significant decrease
fold higher IC50 values for apixaban compared to the wild-type FXa ([1]; FIG. 1G): ~350 fold
IC50 [1]: > 251 nM
response to TFPI (TFPI activity) [2]: much smaller response to TPFI compared to andexanet alfa
Km ([3]; activity in the presence of a fixed amount (1 μM) of apixaban, read-out: apparent Km): 1.1 ± 0.171 µM
potency compared with wild type FXa ([3]; thrombin generation assay as worded): less potent than wild type FXa

Variant 65: modified Factor Xa polypeptide, G440A, S1 subsite, SEQ ID NO: 8
IC50 [1]: 151 to 250 nM

B1: FXa variant 70 (amino acids 312-317 replaced with STYVPG) (protein)
chain: GPANSFLEEMKKGHLERECMEETCSYEEAREVFEDSDKTNEFWNKYKDGDQCETSPCQNQGKCKDGLGEYTCTCLEGFEGKNCELFTRKLCSLDNGDCDQFCHEEQNSVVCSCARGYTLADNGKACIPTGPYPCGKQTLERRKRSVAQATSSSGEAPDSITWKPYDAADLDPTENPFDLLDFNQTQPERGDNNLTRIVGGQECKDGECPWQALLINEENEGFCGGTILSEFYILTAAHCLYQAKRFKVRVGDRNTEQEEGGEAVHEVEVVIKHSTYVPGTYDFDIAVLRLKTPITFRMNVAPACLPERDWAESTLMTQKTGIVSGFGRTHEKGRQSTRLKMLEVPYVDRNSCKLSSSFIITQNMFCAGYDTKQEDACQGDSGGPHVTRFKDTYFVTGIVSWGEGCARKGKYGIYTKVTAFLKWIDRSMKTRGLPKAKSHAPEVITSSPLK
TFPI activity (ACTICHROME TFPI assay) [4]: both variants #61 and #70 showed much smaller response to TPFI compared to andexanet alfa
